The record followed here is patent US20260284275A1, “NANOGEL COMPRISING BIOACTIVE MOLECULES, THERAPEUTIC MOLECULES OR DRUGS TOGETHER WITH AN AMPHIPHILIC MOLECULE” (CM4CURE S.A., priority 2023, published 2026).

Assay [1] concerns S. aureus (ATCC BAA-1556, MRSA). Description: Real-time microcalorimetry (Calscreener) of bacterial growth in TSB. Conditions: for bacterial growth (heat flow): 24 h, 37° C. The format is cell-based. On the procedure: S. aureus (ATCC BAA-1556, MRSA) was grown overnight in TSB (tryptic soy broth) medium, before being diluted 1×10^4 fold in fresh TSB. Subsequently […] aliquots of diluted bacteria suspensions were supplemented with 10 μg/mL and 20 μg/mL of respectively triafluocyl (Polpharma) alone or in the mixture with TPGS (MedChemExpress LLC (Europe)) (1:1 w/w). Both Triafluocyl and TPGS were prepared in absolute ethanol as already mentioned in the above examples and were refrigerated as master stocks in absolute ethanol. Triafluocyl, TPGS or ethanol (0.6% final conc.) as a vehicle were added to the bacterial suspensions to obtain the concentrations (10 μg/mL and 20 μg/m) followed by a brief vortexing. Bacterial aliquots were then distributed in the dedicated non-activated inserts of a 48-well plate and grown for 24 h under static conditions at 37° C. using Calscreener technology to measure bacterial growth and metabolic activity in Real-Time as described in https://cordis.europa.eu/project/id/784514.
In FIG. 6, the real-time microcalorimetric measurements of bacterial metabolic activity is expressed as the heat flow and represents bacterial growth in TSB medium. Solid line stands for control bacteria with a vehicle (0.6% ethanol); thick dashed line—bacteria treated with 10 μg/mL of triafluocyl; thick dotted line—bacteria treated with 20 μg/mL of triafluocyl; thin dashed line—bacteria treated with both triafluocyl and TPGS (10 μg/mL:10 μg/mL); thin dotted line—bacteria treated with both triafluocyl and TPGS (20 μg/mL:20 μg/mL).

Assay [2] has as its system S. aureus (MRSA, ATCC 6538). Description: Real-time microcalorimetry of bacterial growth in liquid medium. The class given is cell-based. Conditions: Fluometacyl 10 or 20 μg/mL with hydroxypropyl-β-cyclodextrin 42 μg/mL, 24 h. As to the method: S. aureus (MRSA, ATCC 6538) was grown overnight in TSB (tryptic soy broth) medium, before being diluted 1×10^7 fold in the fresh TSB. Subsequently […] aliquots of diluted bacteria suspensions were supplemented with Fluometacyl® (10 or 20 μg/mL) or mixture of Fluometacyl® (10 or 20 μg/mL) and hydroxypropyl-β-cyclodextrin (42 μg/mL). Subsequently 300 μL of suspensions were placed into the dedicated non-activated inserts of a 48-well plate and allowed for growing for 24 h under static conditions at 37 C using Calscreener.
Curve A—control bacterial growth for S. aureus MRSA 10^−6; Curve B—Bacteria with Fluometacyl® (10 μg/mL); Curve C—Bacteria with Fluometacyl® (10 μg/mL) and hydroxypropyl-β-cyclodextrin (42 μg/mL); Curve D—Bacteria with Fluometacyl® (20 μg/mL); Curve E—Bacteria with Fluometacyl® (20 μg/mL) and hydroxypropyl-β-cyclodextrin (42 μg/mL).

Regarding `CCCSc1nc(N[C@@H]2C[C@H]2c2ccc(F)c(F)c2)c2nnn([C@@H]3C[C@H](OCCO)[C@@H](O)[C@H]3O)c2n1` [Triafluocyl], the “bacterial growth (heat flow)” value is listed as “significantly reduces” in assay [1] (10 μg/mL) and “fully inhibited” in assay [1] (20 μg/mL).

Turning to `CC(O)COC[C@H]1O[C@@H]2O[C@H]3[C@H](O)[C@@H](O)[C@@H](O[C@H]4[C@H](O)[C@@H](O)[C@@H](O[C@H]5[C@H](O)[C@@H](O)[C@@H](O[C@H]6[C@H](O)[C@@H](O)[C@@H](O[C@H]7[C@H](O)[C@@H](O)[C@@H](O[C@H]8[C@H](O)[C@@H](O)[C@@H](O[C@H]1[C@H](O)[C@H]2O)O[C@@H]8COCC(C)O)O[C@@H]7COCC(C)O)O[C@@H]6COCC(C)O)O[C@@H]5COCC(C)O)O[C@@H]4COCC(C)O)O[C@@H]3COCC(C)O` (stereo partly drawn) [hydroxypropyl-β-cyclodextrin], the “effect on the antibacterial activity of Fluometacyl in solution” value in assay [2] was “didn't impair”. As to “D-α-tocopheryl polyethylene glycol succinate [TPGS]”, the “effect of added TPGS on the inhibitory effect of triafluocyl on bacterial growth” value in assay [1] (TPGS at equivalent amount (1:1 w/w) to triafluocyl, 10 and 20 μg/mL) is listed as “significantly reduced the inhibitory effect”.
